Values quoted from earlier work in patent US8323685B2, “Methods of processing compositions containing microparticles” (Baxter International Inc., priority 2008, dated 2012).

Legend:
rats = conditions: oral, all at once (acute toxicity), minimal amount reported in the literature
[1] = ambient temperature such as 20-25° C.

SMILES	LD50 (rats)	Solubility (Sol) of water in the liquid [1]
CCC(C)=O [2-butanone (MEK), 2-butanone]	2.7 g/kg body weight	–
CC(C)=O [Acetone]	5.8 g/kg body weight	–
CC(C)OC(C)C [diisopropyl ether]	–	0.2 g/100 g
COCCOC [dimethoxyethane]	10 g/kg body weight	–
CCOCC [ether]	1.2 g/kg body weight	7.5 g/100 g
